The values below are quoted from earlier work in paper PMC10671431, “New Derivatives of N-Hydroxybutanamide: Preparation, MMP Inhibition, Cytotoxicity, and Antitumor Activity” (International Journal of Molecular Sciences, 2023).

The structures appear in SMILES notation. Where two headings read alike, the source gives them in different places.

In data set [1] the test system is co-cultured neonatal rat ventricular fibroblasts and myocytes. The arrangement: method as in PMID 19365278. The following applies: 24 h of exposure; cited from earlier work.
Data set [2] relates to WM266-4 melanoma cells in nude mice. Also noted: method as in PMID 27687955. The following applies: cited from earlier work.
The subject of a further data set is MMP-13. The arrangement: method as in PMID 23541335, PMID 16538215. The following applies: cited from earlier work.
The test system of a further data set is MMP-8. The arrangement: method as in PMID 23541335, PMID 16538215. The following applies: cited from earlier work.
The test system of another data set is MMP-1. The arrangement: method as in PMID 23541335, PMID 16538215. Conditions: cited from earlier work.
In another data set the test system is human glioma U-251 cells. Also noted: method as in PMID 10048980. Conditions: 10 μM, 96 h of exposure; cited from earlier work.
Data set [3] has as its system human breast carcinoma cells MDA-MB-435. The arrangement: method as in PMID 31637006. The following applies: concentrations up to 50 μg/mL (150.87 μM), 48 h of exposure; cited from earlier work.
Data set [4] relates to mouse breast carcinoma cells 4T1. The arrangement: method as in PMID 31637006. Conditions: concentrations up to 50 μg/mL (150.87 μM), 48 h of exposure; cited from earlier work.
Data set [5] relates to hamster peritoneal macrophages. The following applies: 72 h of exposure; cited from earlier work.
Data set [6] concerns human histiocytic lymphoma cells U-937. Also noted: method as in doi:10.17265/1934-7375/2015.06.002. Conditions: 72 h of exposure, cited from earlier work.
Data set [7] relates to human hepatocellular carcinoma cells HepG2. The arrangement: method as in doi:10.17265/1934-7375/2015.06.002. Conditions: 72 h of exposure, cited from earlier work.
The target of the next data set is gelatinase A (MMP-2). The arrangement: method as in earlier work. The following applies: read-out: IC50 for gelatinase A (MMP-2) inhibition; cited from earlier work.
For data set [8], the system named is pancreatic adenocarcinoma cells Capan1. Also noted: method as in PMID 10767785. Conditions: 72 h of exposure, cited from earlier work.
Data set [9] has as its system pancreatic carcinoma cells CD18. The arrangement: method as in PMID 24022491. Conditions: 5 μM, 24 h of exposure; cited from earlier work.
In data set [10] the test system is pancreatic adenocarcinoma cells AsPC1. Also noted: method as in PMID 10767785. Conditions: 72 h of exposure, cited from earlier work.
Data set [11] has as its system pancreatic carcinoma cells MiaPaCa2. The arrangement: method as in PMID 24022491. The following applies: 5 μM, 24 h of exposure; cited from earlier work.
The subject of data set [12] is pancreatic adenocarcinoma HPAC cells. Also noted: method as in PMID 9224409. The following applies: 4000 ng/mL (8.37 μM), 24 h of exposure; cited from earlier work.
The subject of data set [13] is Shionogi hormone-responsive breast carcinoma cells. Also noted: method as in PMID 8347186. Conditions: 156 μg/mL (326.61 μM), 96 h of exposure; cited from earlier work.
The subject of a further data set is B16-BL6 melanoma. Also noted: method as in PMID 8050828. The following applies: mice with B16-BL6 melanoma; cited from earlier work.
Data set [14] has as its system rat prostate cells derived from R3327-MatLyLu Dunning tumor. Also noted: method as in PMID 10754522. Conditions: 4000 ng/mL (8.37 μM), 48 h of exposure; cited from earlier work.
Data set [15] deals with human MV522 lung cancer cells in nude mice. Also noted: method as in PMID 10430098. The following applies: cited from earlier work.
A further data set concerns Lewis lung carcinoma. The arrangement: method as in PMID 9247252. Conditions: cited from earlier work.
Data set [16] deals with human malignant glioma cells U-87. The arrangement: method as in PMID 10213221. The following applies: cited from earlier work.
The subject of data set [17] is hormone-sensitive prostate cancer G subline of Dunning tumor. Also noted: method as in PMID 16096433. The following applies: rats; cited from earlier work.
The mark [18] stands for this setting: concentrations up to 10,000 ng/mL (20.94 μM).
The mark [19] stands for this setting: higher concentrations (up to 100,000 ng/mL or 209.36 μM).

Take `CC(C)[C@H](NS(=O)(=O)c1ccc(-c2ccc(Br)cc2)cc1)C(=O)O` [PD166793]: in data set [1], the “concentrations toxic to cells” value is reported as “above 100 μM”.
For `Nc1ccc(Oc2ccc(S(=O)(=O)CC3CS3)cc2)cc1` (centres unmarked) [ND-322], the tumor growth result in data set [2] is on record as “inhibited the growth”.
`O=C(C[C@H](CSc1ccccc1)C(=O)O)c1ccc(-c2ccc(Cl)cc2)cc1` [tanomastat]: in the data set on MMP-13, the “inhibition of MMP-13” value is “does not inhibit”. Further, the “inhibition of MMP-8” value in the data set on MMP-8 is listed as “does not inhibit”. Moreover, in the data set on MMP-1, the “inhibition of MMP-1” value is “does not inhibit”.
The term IC50 denotes the concentration at which inhibition is half-maximal. Take `CNC(=O)[C@@H](NC(=O)[C@H](CC(C)C)[C@H](O)C(=O)NO)C(C)(C)C` [Marimastat]: in the data set on human glioma U-251 cells, the “reduction in cell viability” value is listed as 20–40%. Moreover, the effect on cells result in [3] and in data set [4] was “no effect” each time. Further, the figures for the “cytotoxicity IC50” value in [5], in [6] and in data set [7] were “higher than 200 μg/mL”, 10.8 µg/mL and “higher than 200 μg/mL”, respectively. In addition, the IC50 was 32.6 µM in data set [6] (read-out: cytotoxicity IC50) and more than 603 µM in data set [7] (read-out: cytotoxicity IC50).
With `C=C[C@H]1C[C@@H](C)C[C@@H](C)[C@@H]1c1c(O)ccn(O)c1=O` [pyridoxatin], the IC50 on gelatinase A (MMP-2) was 15.2 µM.
Turning to `CNC(=O)[C@H](Cc1ccccc1)NC(=O)[C@H](CC(C)C)[C@H](CSc1cccs1)C(=O)NO` [Batimastat], the “reduction in cell viability” value in the data set with human glioma U-251 cells is recorded as 20–40%. Also, the toxicity to cells result is on record as “no toxicity” in data set [8] (setting [18]); “only mild toxicity” in data set [8] (setting [19]); “toxic” in data set [9]; “no toxicity” in data set [10] (setting [18]); “only mild toxicity” in data set [10] (setting [19]); “toxic” in data set [11]. The “inhibition of cell growth” value in [12] and in data set [14] was “inhibit the growth” each time. Besides, the “effect on cell density” value in data set [13] is reported as “no apparent effect”. In addition, the tumor growth result in the data set on B16-BL6 melanoma was “inhibit tumor growth”.
In the case of `CC1(C)SCCN(S(=O)(=O)c2ccc(Oc3ccncc3)cc2)[C@H]1C(=O)NO` [Prinomastat], the tumor growth result (in data set [15]; in the data set with Lewis lung carcinoma) was “inhibit the growth” in each case. Further, in [16], the “concentrations toxic to cells” value is given as “above 100 μM”.
`O=C1NC(=O)C(c2ccc(-c3ccccc3)cc2)(N2CCN(c3ccc([N+](=O)[O-])cc3)CC2)C(=O)N1` [RO 28-2653]: the tumor growth result in data set [17] was “inhibit the growth”.
